BindingDB's records for doi:10.1021/jm00092a019 (Bristol-Myers Squibb Pharmaceutical Research Institute, 1992)

Experiments:
[1] = Inhibition of platelet aggregation using Adenosine diphosphate (ADP) as activating agent in rabbit platelet rich plasma (PRP)
[2] = Inhibition of platelet aggregation using adenosine diphosphate (ADP) as activating agent in human platelet rich plasma (PRP)
[3] = Inhibition of platelet aggregation using Adenosine diphosphate (ADP) as activating agent in rabbit platelet rich plasma (PRP); remark: listed apart in the source
[4] = Inhibition of platelet aggregation using adenosine diphosphate (ADP) as activating agent in human platelet rich plasma PRP
P2Y purinoceptor 12 = P2Y purinoceptor 12 (Homo sapiens, UniProt Q9H244); assay: Inhibition of platelet aggregation using adenosine diphosphate (ADP) as activating agent in human platelet rich plasma (PRP)
P2Y purinoceptor 12, sequence (Q9H244 whole entry): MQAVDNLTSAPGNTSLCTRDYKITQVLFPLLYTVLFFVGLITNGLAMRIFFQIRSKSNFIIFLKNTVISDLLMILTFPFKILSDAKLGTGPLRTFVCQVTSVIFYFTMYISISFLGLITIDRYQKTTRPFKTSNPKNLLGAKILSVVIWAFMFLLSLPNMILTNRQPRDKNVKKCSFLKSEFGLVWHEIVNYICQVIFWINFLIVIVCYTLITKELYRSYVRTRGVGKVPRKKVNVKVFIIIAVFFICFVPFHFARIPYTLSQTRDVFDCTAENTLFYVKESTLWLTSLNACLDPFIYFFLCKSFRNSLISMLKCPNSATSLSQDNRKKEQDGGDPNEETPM

[5] = Inhibition of ADP-induced platelet aggregation in rabbit platelet rich plasma (PRP)

| Compound | EC50 [1] | EC50 [2] | EC50 [3] | also measured |
| --- | --- | --- | --- | --- |
| CCOC(=O)CCCOc1ccc2nc3[nH]c(=O)[nH]c3cc2c1 | 630 nM | 38 nM | – | – |
| CN(C(=O)CCCOc1ccc2nc3c(cc2c1)n(C)c(=O)n3C)C1CCCCC1 | – | – | 26700 nM | – |
| CN(C(=O)CCCCCOc1ccc2nc3[nH]c(=O)[nH]c3cc2c1)C1CCCCC1 | 20 nM | 540 nM | – | – |
| CN(C(=O)CCCCOc1ccc2nc3[nH]c(=O)n(C)c3cc2c1)C1CCCCC1 | – | – | 150 nM | – |
| O=C(O)CCCOc1ccc2c(c1)CN1CC(=O)NC1=N2 | 6910 nM | > 100000 nM | – | – |
| CCOC(=O)C=Cc1ccc2nc3[nH]c(=O)[nH]c3cc2c1 | – | – | 440 nM | – |
| NC(=O)CCCOc1ccc2nc3[nH]c(=O)[nH]c3cc2c1 | – | 3020 nM | 6040 nM | – |
| CN(C(=O)CCCCOc1ccc2nc3[nH]c(=O)[nH]c3cc2c1)C1CCCCC1 | – | – | 8 nM | – |
| CN(C(=O)CCCOc1ccc2c(c1)CN1CC(=O)NC1=N2)C1CCCCC1 | 100 nM | 440 nM | – | – |
| O=c1[nH]c2cc3cc(OCCCS(=O)(=O)c4ccccc4)ccc3nc2[nH]1 | – | – | 390 nM | – |
| O=C(CCCCc1ccc2nc3[nH]c(=O)[nH]c3cc2c1)N1CCCCC1 | – | 15500 nM | 420 nM | – |
| Cn1c(=O)[nH]c2cc3cc(OCCCC(=O)O)ccc3nc21 | 1660 nM | > 26500 nM | – | – |
| CCOC(=O)COc1ccc2nc3[nH]c(=O)[nH]c3cc2c1 | – | – | 24300 nM | – |
| O=C(CCCOc1ccc2nc3[nH]c(=O)[nH]c3cc2c1)NC1CCCCCC1 | 390 nM | 16 nM | – | – |
| CNC(=O)CCCOc1ccc2nc3[nH]c(=O)[nH]c3cc2c1 | – | 71600 nM | 1330 nM | – |
| CN(C(=O)CCCOc1ccc2nc3[nH]c(=O)[nH]c3cc2c1)C1CCCCCC1 | – | – | 60 nM | – |
| O=c1[nH]c2cc3cc(CCCO)ccc3nc2[nH]1 | – | – | 2470 nM | – |
| COC(=O)CCCOc1ccc2nc3[nH]c(=O)[nH]c3cc2c1 | 66 nM | – | – | EC50 [4]: 83 nM |
| O=C(O)CCCCOc1ccc2nc3[nH]c(=O)[nH]c3cc2c1 | – | > 106000 nM | > 106000 nM | – |
| O=C(CCCOc1ccc2nc3[nH]c(=O)[nH]c3cc2c1)N1CCCCC1 | – | – | – | EC50 (P2Y purinoceptor 12): 130 nM |
| COC(=O)CCCOc1ccc2nc3c(cc2c1)n(C)c(=O)n3C | – | – | > 87500 nM | – |
| O=C(CCCOc1ccc2nc3[nH]c(=O)[nH]c3cc2c1)NC1CCCCC1 | – | – | 40 nM | – |

| Compound | EC50 [1] | EC50 [2] | EC50 [3] | also measured |
| --- | --- | --- | --- | --- |
| Cn1c(=O)[nH]c2nc3ccc(OCCCCC(=O)O)cc3cc21 | – | – | > 100000 nM | – |
| COC(=O)CN(C(=O)CCCOc1ccc2nc3[nH]c(=O)[nH]c3cc2c1)C1CCCCC1 | – | 0.7 nM | 6 nM | – |
| O=C(CCCOc1ccc2nc3[nH]c(=O)[nH]c3cc2c1)NC12C[C@H]3C[C@@H](C1)C[C@@H](C2)C3 | 120 nM | 20 nM | – | – |
| O=C(O)CCCCc1ccc2nc3[nH]c(=O)[nH]c3cc2c1 | 63100 nM | > 112000 nM | – | – |
| CN(C(=O)CCCCOc1ccc2nc3[nH]c(=O)n(C)c3cc2c1)C1CCCCCC1 | 140 nM | 540 nM | – | – |
| CC(O)CCCOc1ccc2nc3[nH]c(=O)[nH]c3cc2c1 (stereo unspecified) | – | 100 nM | – | EC50 [5]: 520 nM |
| CN(C(=O)CCCOc1ccc2nc3[nH]c(=O)[nH]c3cc2c1)C1CCCCC1 | – | 7 nM | – | – |
| Cn1c(=O)[nH]c2nc3ccc(OCCCS(=O)(=O)c4ccccc4)cc3cc21 | – | – | 50300 nM | – |
| COC(=O)CCCOc1ccc2nc3c(cc2c1)[nH]c(=O)n3C | – | 29800 nM | 360 nM | – |
| O=c1[nH]c2cc3cc(OCCCCS(=O)(=O)c4ccccc4)ccc3nc2[nH]1 | 180 nM | 10 nM | – | – |
| O=c1[nH]c2cc3cc(OCCCCc4nnn[nH]4)ccc3nc2[nH]1 | – | 51000 nM | 5400 nM | – |
| COC(=O)CCCCOc1ccc2nc3[nH]c(=O)[nH]c3cc2c1 | – | – | 950 nM | – |
| N#CCCCCOc1ccc2nc3[nH]c(=O)[nH]c3cc2c1 | – | – | 1320 nM | – |
| O=c1[nH]c2cc3cc(OCCCc4nnn[nH]4)ccc3nc2[nH]1 | 6320 nM | > 100000 nM | – | – |
| O=C(CCCCc1ccc2nc3[nH]c(=O)[nH]c3cc2c1)NC12C[C@H]3C[C@@H](C1)C[C@@H](C2)C3 | 960 nM | 5260 nM | – | – |
| N#CCCCOc1ccc2nc3[nH]c(=O)[nH]c3cc2c1 | 180 nM | 600 nM | – | – |
| CC(=O)OCCCCOc1ccc2nc3[nH]c(=O)[nH]c3cc2c1 | – | – | 950 nM | – |
| CC(=O)CCCOc1ccc2nc3[nH]c(=O)[nH]c3cc2c1 | – | – | 1400 nM | – |
| O=C(O)C1CCN(C(=O)CCCOc2ccc3nc4[nH]c(=O)[nH]c4cc3c2)CC1 | 380 nM | 45300 nM | – | – |
| COC(=O)C=CC=Cc1ccc2nc3[nH]c(=O)[nH]c3cc2c1 | – | – | 2690 nM | – |
| COC(=O)CCCCCOc1ccc2nc3[nH]c(=O)[nH]c3cc2c1 | – | – | 90 nM | – |
| Cn1c(=O)[nH]c2nc3ccc(OCCCC(=O)NC4CCCCC4)cc3cc21 | – | 7840 nM | 180 nM | – |

| Compound | EC50 [1] | EC50 [2] | EC50 [3] | also measured |
| --- | --- | --- | --- | --- |
| CCOC(=O)C1CCN(C(=O)CCCOc2ccc3nc4[nH]c(=O)[nH]c4cc3c2)CC1 | – | – | 210 nM | – |
| CCOC(=O)CCc1ccc2nc3[nH]c(=O)[nH]c3cc2c1 | – | – | 440 nM | – |
| CN(C(=O)CCCCc1ccc2nc3[nH]c(=O)[nH]c3cc2c1)C1CCCCC1 | 210 nM | 1100 nM | – | – |
| CCOC(=O)CN(C(=O)CCCOc1ccc2nc3[nH]c(=O)[nH]c3cc2c1)C1CCCCC1 | – | – | 20 nM | – |
| CN(C(=O)CCCCOc1ccc2nc3[nH]c(=O)[nH]c3cc2c1)C1CCCCCC1 | 5 nM | 1 nM | – | – |
| CN(C(=O)CCCOc1ccc2nc3[nH]c(=O)n(C)c3cc2c1)C1CCCCCC1 | – | 1220 nM | 70 nM | – |
| O=c1[nH]c2cc3cc(OCCCO)ccc3nc2[nH]1 | – | – | 770 nM | – |
| COC(=O)CCCCOc1ccc2nc3[nH]c(=O)n(C)c3cc2c1 | – | – | 9110 nM | – |
| CN(C(=O)CCCOc1ccc2nc3[nH]c(=O)n(C)c3cc2c1)C1CCCCC1 | – | – | 50 nM | – |
| O=C(O)CN(C(=O)CCCOc1ccc2nc3[nH]c(=O)[nH]c3cc2c1)C1CCCCC1 | 910 nM | 9600 nM | – | – |
| Cn1c(=O)[nH]c2nc3ccc(OCCCC(=O)O)cc3cc21 | – | – | > 106000 nM | – |
| CC(=O)OCCOc1ccc2nc3[nH]c(=O)[nH]c3cc2c1 | – | – | 870 nM | – |
| COC(=O)CCCCc1ccc2nc3[nH]c(=O)[nH]c3cc2c1 | 430 nM | 3000 nM | – | – |
| O=C(O)CCCCCOc1ccc2nc3[nH]c(=O)[nH]c3cc2c1 | – | – | 3170 nM | – |
| Cn1c(=O)[nH]c2nc3ccc(OCCCC(=O)N4CCCCC4)cc3cc21 | – | – | 10900 nM | – |
| CCOCCOc1ccc2nc3[nH]c(=O)[nH]c3cc2c1 | – | – | 4840 nM | – |
| O=c1[nH]c2cc3cc(CCCCCO)ccc3nc2[nH]1 | – | – | 2950 nM | – |
| CN(C)C(=O)CCCOc1ccc2nc3[nH]c(=O)[nH]c3cc2c1 | – | 190 nM | – | – |
| O=C(O)COc1ccc2nc3[nH]c(=O)[nH]c3cc2c1 | – | – | 1910 nM | – |
| CN(C(=O)CCCOc1ccc2nc3c(cc2c1)[nH]c(=O)n3C)C1CCCCC1 | 520 nM | 33000 nM | – | – |
| O=C(CCCOc1ccc2nc3[nH]c(=O)[nH]c3cc2c1)NC1CCCC1 | – | – | 420 nM | – |
| CC(=O)OCCCOc1ccc2nc3[nH]c(=O)[nH]c3cc2c1 | – | – | 330 nM | – |
